Source: US20030083250A1, “Anti-tumor chemotherapy by administration of cyclophosphamide and erythropoeitin” (priority 2001, published 2003)
Entries after “also recorded” stand apart in the source; their conditions may differ.

Columns and labels:
Male Sprague-Dawley rats = test: Blood cell parameters (automated hematology analyzer) in rats with carboplatin-induced anemia, with or without rHuEPO; format: in vivo, rat; settings: for CHb (hemoglobin concentration): day of cyclophosphamide treatment (Day 5 after tumor implantation), carboplatin 50 mg/kg i.v. on Day -4, rHuEPO 1000 IU/kg s.c. three times per week
Procedure: (§1) Male Sprague-Dawley rats (Charles River Wiga, Sulzfeld, Germany; body weight 100 to 160 g) housed in our animal care facility were used in the study. Animals were allowed access to food and acidified water ad libitum before and throughout the investigation. All experiments had previously been approved by the regional animal ethics committee and were conducted in accordance with the German Law for Animal Protection and the UKCCCR Guidelines [United Kingdom Coordinating Committee on Cancer Research (UKCCCR) guidelines for the welfare of animals in experimental neoplasia (2 nd edit). Br. J. Cancer, (1998) 77:1-10].
(§2) Prolonged anemia was induced by a single injection of carboplatin (Sigma-Aldrich, Steinheim, Germany) at a dose of 50 mg/kg body weight (dissolved in isotonic saline at a concentration of 20 mg/ml) into the tail vein four days before tumor implantation.
(§3) Recombinant human erythropoietin (epoetin alpha, ERYPO 4000®; Janssen-Cilag, Neuss, Germany) in isotonic NaCl solution was administered (1000 IU/kg) three times per week over sixteen days by s.c. injection starting eleven days before tumor implantation. Control animals received equivalent volumes of the solvent (0.5 ml/ kg).
Besides tumor growth, blood cell parameters were assessed using a multi-parameter, automated hematology analyzer (Ac-T8; Beckman-Coulter, Krefeld, Germany) whereby erythrocyte, white blood cell and platelet counts together with the mean cell volume (MCV) were measured by an impedance technique and the hemoglobin concentration by a photometric method. In addition, the analyzer uses the measured values to calculate several other parameters (e.g., hematocrit, mean corpuscular hemoglobin content [MCH] and mean corpuscular hemoglobin concentration [MCHC]). All measurements were performed using a sample of venous blood (20 μl) taken from a tail vein.
(§4) Results are expressed as means±standard error of the mean (SEM). Differences between the groups were assessed by the two-tailed Wilcoxon test for unpaired samples. The significance level was set at α=5% for all comparisons. For characterizing the effect of chemotherapy on tumor growth, the growth delay induced by cyclophosphamide was calculated.

DS-sarcoma = test: Growth of subcutaneous DS-sarcomas in rats (tumor volume, volume doubling time, growth delay after cyclophosphamide); format: in vivo, rat; settings: for volume doubling time / impact on tumor growth rate per se: tumors not treated with cyclophosphamide; for impact on tumor growth rate per se: carboplatin four days before implantation, rHuEPO 1000 IU/kg three times per week; for volume doubling time during the regrowth period: after cyclophosphamide; for growth delay following chemotherapy: at the 1.3 ml tumor volume level, cyclophosphamide 60 mg/kg i.p. Day 5
Procedure: as §1
Solid DS-sarcomas were induced by injecting DS-sarcoma cells (0.4 ml approximately 10^4 cells/μl) subcutaneously into the hind food dorsum. […] Tumor volumes were determined by measuring the three orthogonal diameters of the tumor and using an ellipsoid approximation with the formula: V=d1×d2×d3×π/6. From the volume growth curves the volume doubling time was calculated during exponential tumor growth.
as §2, §3
Animals treated with equivalent volumes of the solvent (isotonic saline 6 ml/kg) served as controls.
Group 1 (non-anemic): Animals received cyclophosphamide on Day 5 after tumor implantation.
Group 2 (anemic): Animals treated for four days before tumor implantation with carboplatin for anemia induction. Cyclophosphamide was administered on Day 5 after implantation.
Group 3 (anemic, rHuEPO-treated): Animals treated with rHuEPO three times per week from eleven days before tumor implantation and up until the day of cyclophosphamide application. Carboplatin (for anemia induction) was administered on Day −4 and cyclophosphamide was applied on Day 5.
Controls for all three experimental groups received equivalent volumes of the solvent instead of cyclophosphamide on Day 5 after tumor implantation.
as §4

[1] = test system: FSaIIC Murine Fibrosarcoma; settings: experimental sarcomas of mice; cited from earlier work
anemic cancer patients = settings: 150 IU/kg t.i.w. vs placebo; after the first month of therapy; platinum or non-platinum chemotherapy; cited from earlier work
[2] = test system: human ovarian cancer xenographs; settings: EPO alone (control group); cited from earlier work
experimental tumors = settings: after correcting anemia; 76% in moderate anemia, 21% before; cited from earlier work
experimental tumours = settings: in vivo; cited from earlier work
[3] = day of cyclophosphamide treatment, mean ± SEM

N.N.O=C([O-])C1(C(=O)[O-])CCC1.[Pt+2] [carboplatin]
CHb (hemoglobin concentration) (Male Sprague-Dawley rats; mean ± SEM): 98 g/L
CHb (hemoglobin concentration) (Male Sprague-Dawley rats; mean ± SEM, listed as CARBOPLATIN): 98 ± 3 g/L
Hematocrit (Male Sprague-Dawley rats; [3]): 28 ± 1%
Mean Corpuscular Hb Concentration (MCHC) (Male Sprague-Dawley rats; [3]): 348 ± 5 g/L
Mean Corpuscular Hemoglobin (MCH) (Male Sprague-Dawley rats; [3]): 22 ± 1 pg
Mean Corpuscular Volume (MCV) (Male Sprague-Dawley rats; [3]): 63 ± 1 fL
RBC count (Male Sprague-Dawley rats; [3]): 4.5 ± 0.2 10^6/μl
mean cHb (Male Sprague-Dawley rats; nine days after a single dose of carboplatin 50 mg/kg i.v., start approximately 130 g/l): about 100 g/l
volume doubling time (DS-sarcoma): approximately 1.8 days
impact on tumor growth rate per se (DS-sarcoma): does not affect the growth of DS sarcomas; also recorded: no impact per se on the growth rate of the tumors; also recorded: no effect on the growth rate of DS-sarcomas
cell kill in oxygenated versus hypoxic tumor areas [1]: more pronounced cell kill

O=P1(N(CCCl)CCCl)NCCCO1 (stereo not drawn) [cyclophosphamide]
volume doubling time during the regrowth period (DS-sarcoma; anemic group): 4.0 days
volume doubling time during the regrowth period (DS-sarcoma; non-anemic group): 4.6 days
growth delay following chemotherapy (DS-sarcoma; anemic (carboplatin) group): 8.6 days
growth delay following chemotherapy (DS-sarcoma; non-anemic group): approximately 13.3 days
growth delay (DS-sarcoma; single dose 60 mg/kg i.p., stated in the methods, not curative): approximately eight to ten
cell kill in oxygenated versus hypoxic tumor areas [1]: more pronounced cell kill

N[C@@H](Cc1ccc(N(CCCl)CCCl)cc1)C(=O)O [melphalan]
cell kill in oxygenated versus hypoxic tumor areas [1]: more pronounced cell kill

rHuEPO: Recombinant human erythropoietin (epoetin alpha, ERYPO 4000; Janssen-Cilag)
cHb (Male Sprague-Dawley rats; continuous rHuEPO treatment in otherwise untreated rats, within one week): 153 g/L
CHb (hemoglobin concentration) (Male Sprague-Dawley rats; mean ± SEM): 137 g/L
effect on carboplatin-induced anemia at the time of chemotherapy (Male Sprague-Dawley rats; rHuEPO for approximately one week prior to carboplatin application): prevention (or reversal) of the carboplatin-induced anemia
effect of reversing anemia on cytotoxicity of cyclophosphamide chemotherapy (DS-sarcoma; DS sarcomas, anemia cHb=98 g/l): significantly increases the cytotoxicity of this chemotherapy
volume doubling time during the regrowth period (DS-sarcoma; rHuEPO-treated animals): 4.3 days
growth delay following chemotherapy (DS-sarcoma; rHuEPO-treated group (carboplatin + rHuEPO)): approximately 13.3 days
volume doubling time (DS-sarcoma): approximately 1.8 days
impact on tumor growth rate per se (DS-sarcoma): no impact per se on the growth rate of the tumors; also recorded: no impact on the tumor growth per se
effect on hematocrit and transfusion requirements (anemic cancer patients): increase hematocrit and decrease transfusion requirements
changes in tumor growth [2]: no changes in tumor growth
fraction of hypoxic pO2 values ≦2.5 mmHg (experimental tumors): 55%
effect of correction of anemia on radiosensitivity (experimental tumours): able to improve the radiosensitivity
